How the values were obtained:
active GLP-1 = assay: Active GLP-1 during oral glucose tolerance test (OGTT) and at 24 h in lean male SPD rats; assay type: in vivo, rat
Method: To establish the acute effects of oral administration of Compound A and Compound B upon active GLP-1 and insulin concentrations, lean (about 300 g) male Sprague-Dawley (SPD) rats were divided into groups (n=6-8) and fed 74 and 84 mg/kg body weight of Compound A or Compound B respectively, either with or without concurrent administration of a dipeptidyl peptidase 4 (DPP-4) inhibitor 60 minutes prior to an oral glucose tolerance test (OGTT) as outlined below. Parallel groups receiving either corn oil alone (corn oil+vehicle, n=10) or corn oil and a DPP-4 inhibitor (“DPP-4 i”) (corn oil+ (DPP-4 i), n=10) were included as controls. The DPP-4 inhibitor was linagliptin.
A second oral dose of 74 and 84 mg/kg bodyweight of Compound A or Compound B respectively was administered at 240 minutes and ad lib feeding was initiated. A second dose of DPP-4 inhibitor was administered at 480 mins prior to lights out. Blood samples were collected at 24 h for measurement of active GLP-1 and insulin. All values are mean, figures depict mean values (SEM).

[1] = test system: B6.V-Lepob/Jrj mice (ob/ob); assay: Glucose tolerance (0-120 mins) after 28-day treatment in ob/ob mice; assay type: in vivo, mouse; conditions: 28 days
Method: This study was carried out to assess the effects of chronic treatment with Compound B or Compound A on glucose tolerance in a T2DM rodent model.
For assessing the effects of Compound B, B6.V-Lepob/Jrj mice (ob/ob) mice were administered Compound B at one of 2 doses, 125 and 250 mg/kg for 28 days. […] After the oral glucose load, plasma glucose was measured at multiple time points from and AUC (0-120 mins) for glucose was calculated.

[2] = Intestinal tissue distribution of radioactivity by quantitative whole-body autoradiography (QWBA); assay type: in vivo; conditions: male albino rat, single oral [14C]-Compound B 50 mg/kg
Method: This study was conducted to determine the intestinal tissue distribution of radioactivity in male albino rats following a single oral administration of [14C]-Compound B using quantitative whole-body autoradiography (QWBA). The tissue distribution in rats following a single oral dose of [14C]-Compound B at 50 mg/kg (ca 5 MBq/kg) was studied by QWBA analysis up to 168 hours after dosing.

[3] = test system: IL6, IL1b, S100A8, TNFα, Reg3g, IL17a mRNA; assay: Colonic mRNA levels of cytokines and biomarkers by real-time PCR in DSS-induced colitis mice; assay type: in vivo, mouse; conditions: 126 and 252 mg/kg per day, relative to HPRT
Method: The C56BL/6J mouse is a strain susceptible to DSS-induced colitis. To evaluate the efficacy and dosage of Compound B in treatment of DSS-induced colitis, inflammation was induced in 30 9-week old C56BL/6J mice by adding 1.5% DSS to the drinking water for 7 days. The mice were fed a standard chow diet that consisted of 30 weight percent wheat. The mice were divided into three groups of 10, and for each day of DSS administration each group was administered via oral gavage either (1) 100 μL corn oil per day (Control), (2) 126 mg/kg Compound B (dissolved in 100 μL corn oil) per day (“Compound B-Low” or “Compound B-L”), or (3) 252 mg/kg Compound B (dissolved in 100 μL corn oil) per day (“Compound B-High” or “Compound B-H”). Following the 7-day period of DSS induction, mice were sacrificed and their intestinal tissue was used for histopathological and gene expression analysis.
To evaluate the effect of treatment with Compound B on the levels of proinflammatory cytokines and biomarkers, total RNA was extracted from small and large intestinal tissue samples (>100 mg). cDNA was synthesized by reverse transcription and analyzed by real-time PCR. Results were normalized to the level of the housekeeping gene hypoxanthine guanine phosphoribosyltransferase (HPRT). The relative mRNA expression of the tested gene relative to HPRT expression was calculated using the 2^−ΔΔCt method as described in Pickert et al., J. Exp. Med., 2009, 206:1465-1472. Interleukin 6 (IL6), IL1b, calgranulin-A (S100A8), and tumor necrosis factor α (TNFα) have been implicated as mediators of IBD, including both ulcerative colitis and Crohn's disease. IL6, IL1b, and calgranulin-A are prominently expressed in inflammatory macrophages. IL22-dependent regenerating islet-derived 3 gamma (Reg3g) is induced in response to inflammation in epithelial cells. IL17 is secreted by Th17 T helper cells and innate lymphoid cells type 3 (ILC3).

atherogenic lipids = conditions: APOE*3.CETP mice; cited from earlier work
[4] = 1 hour, *affected by high levels of radioactivity in adjacent contents
[5] = 2 hours, *affected by high levels of radioactivity in adjacent contents
[6] = 4 hours, *affected by high levels of radioactivity in adjacent contents
[7] = 8 hours, *affected by high levels of radioactivity in adjacent contents

## CC/C=C\C/C=C\C/C=C\C/C=C\C/C=C\CCCCSC(CC)(CC)C(=O)O [Compound B, 2-ethyl-2-((5Z,8Z,11 Z,14Z,17Z)-icosa-5,8,11,14,17-pentaenylthio)butanoic acid]
Active GLP-1; Compound B 84 mg/kg oral in combination with DPP4 inhibitor (linagliptin), OGTT, p<0.05
  Increase in active GLP-1 (AUC 0-60 mins) versus corn oil+vehicle: > 2 fold
Active GLP-1; in combination with DPP4 inhibitor, Compound A 74 mg/kg or Compound B 84 mg/kg oral, two doses
  Effect on active GLP-1 concentration at 24 h versus corn oil+vehicle: significantly (p<0.01) increased
[1]; 250 mg/kg once-daily oral gavage
  AUC (0-120 mins) glucose: potent and highly significant (p<0.001) reduction
[1]; both doses, 125 and 250 mg/kg once-daily oral gavage
  Glucose tolerance after 2 g/kg oral glucose load: improved glucose tolerance
[2]
  Time of peak concentrations in the small intestinal mucosa: 4 h
[2]; 1 hour
  Radioactivity concentration, Caecum mucosa: 1.04 μg equivalents of Compound B/g of tissue
  Radioactivity concentration, Large intestine mucosa: 0.740 μg equivalents of Compound B/g of tissue
  Radioactivity concentration, Oesophageal wall: 5.83 μg equivalents of Compound B/g of tissue
  Radioactivity concentration, Rectum mucosa: 0.417 μg equivalents of Compound B/g of tissue
  Radioactivity concentration, Stomach mucosa (fundus): 8.08 μg equivalents of Compound B/g of tissue
[2]; [4]
  Radioactivity concentration, Small intestine mucosa: 127* μg equivalents of Compound B/g of tissue
  Radioactivity concentration, Stomach mucosa (non-fundic): 17.3* μg equivalents of Compound B/g of tissue
[2]; 2 hours
  Radioactivity concentration, Caecum mucosa: 1.73 μg equivalents of Compound B/g of tissue
  Radioactivity concentration, Large intestine mucosa: 0.332 μg equivalents of Compound B/g of tissue
  Radioactivity concentration, Oesophageal wall: 1.72 μg equivalents of Compound B/g of tissue
  Radioactivity concentration, Rectum mucosa: 0.883 μg equivalents of Compound B/g of tissue
  Radioactivity concentration, Stomach mucosa (fundus): 4.31 μg equivalents of Compound B/g of tissue
[2]; [5]
  Radioactivity concentration, Small intestine mucosa: 56.5* μg equivalents of Compound B/g of tissue
  Radioactivity concentration, Stomach mucosa (non-fundic): 28.1* μg equivalents of Compound B/g of tissue
[2]; 4 hours
  Radioactivity concentration, Large intestine mucosa: 0.920 μg equivalents of Compound B/g of tissue
  Radioactivity concentration, Oesophageal wall: 1.29 μg equivalents of Compound B/g of tissue
  Radioactivity concentration, Rectum mucosa: 1.03 μg equivalents of Compound B/g of tissue
  Radioactivity concentration, Stomach mucosa (fundus): 5.38 μg equivalents of Compound B/g of tissue
[2]; [6]
  Radioactivity concentration, Caecum mucosa: 93.1* μg equivalents of Compound B/g of tissue
  Radioactivity concentration, Small intestine mucosa: 158* μg equivalents of Compound B/g of tissue
  Radioactivity concentration, Stomach mucosa (non-fundic): 300* μg equivalents of Compound B/g of tissue
[2]; 8 hours
  Radioactivity concentration, Oesophageal wall: 5.86 μg equivalents of Compound B/g of tissue
  Radioactivity concentration, Small intestine mucosa: 42.7 μg equivalents of Compound B/g of tissue
  Radioactivity concentration, Stomach mucosa (fundus): 7.84 μg equivalents of Compound B/g of tissue
[2]; [7]
  Radioactivity concentration, Caecum mucosa: 112* μg equivalents of Compound B/g of tissue
  Radioactivity concentration, Large intestine mucosa: 120* μg equivalents of Compound B/g of tissue
  Radioactivity concentration, Rectum mucosa: 3.57* μg equivalents of Compound B/g of tissue
  Radioactivity concentration, Stomach mucosa (non-fundic): 252* μg equivalents of Compound B/g of tissue
[2]; 1 day
  Radioactivity concentration, Large intestine mucosa: 2.63 μg equivalents of Compound B/g of tissue
  Radioactivity concentration, Oesophageal wall: 2.25 μg equivalents of Compound B/g of tissue
  Radioactivity concentration, Rectum mucosa: 0.870 μg equivalents of Compound B/g of tissue
  Radioactivity concentration, Small intestine mucosa: 22.6 μg equivalents of Compound B/g of tissue
  Radioactivity concentration, Stomach mucosa (fundus): 1.15 μg equivalents of Compound B/g of tissue
  Radioactivity concentration, Stomach mucosa (non-fundic): 3.87 μg equivalents of Compound B/g of tissue
[2]; 1 day, *affected by high levels of radioactivity in adjacent contents
  Radioactivity concentration, Caecum mucosa: 113* μg equivalents of Compound B/g of tissue
[2]; 3 days
  Radioactivity concentration, Caecum mucosa: 0.319 μg equivalents of Compound B/g of tissue
  Radioactivity concentration, Large intestine mucosa: 1.06 μg equivalents of Compound B/g of tissue
  Radioactivity concentration, Oesophageal wall: BLQ (Tissue concentration below lower limit of quantification)
  Radioactivity concentration, Rectum mucosa: BLQ (Tissue concentration below lower limit of quantification)
  Radioactivity concentration, Small intestine mucosa: 0.197 μg equivalents of Compound B/g of tissue
  Radioactivity concentration, Stomach mucosa (fundus): BLQ (Tissue concentration below lower limit of quantification)
  Radioactivity concentration, Stomach mucosa (non-fundic): 0.253 μg equivalents of Compound B/g of tissue
[2]; 7 days
  Radioactivity concentration, Caecum mucosa: 0.374 μg equivalents of Compound B/g of tissue
  Radioactivity concentration, Large intestine mucosa: 0.296 μg equivalents of Compound B/g of tissue
  Radioactivity concentration, Oesophageal wall: BLQ (Tissue concentration below lower limit of quantification)
  Radioactivity concentration, Rectum mucosa: 0.641 μg equivalents of Compound B/g of tissue
  Radioactivity concentration, Small intestine mucosa: BLQ (Tissue concentration below lower limit of quantification)
  Radioactivity concentration, Stomach mucosa (fundus): BLQ (Tissue concentration below lower limit of quantification)
  Radioactivity concentration, Stomach mucosa (non-fundic): BLQ (Tissue concentration below lower limit of quantification)
[3]
  Expression of IL17a: lack of change
  mRNA levels of IL1b compared to untreated mice: dose-dependent decrease
  mRNA levels of IL6 compared to untreated mice: dose-dependent decrease
  mRNA levels of Reg3g compared to untreated mice: dose-dependent decrease
  mRNA levels of S100A8 compared to untreated mice: dose-dependent decrease
  mRNA levels of TNFα compared to untreated mice: dose-dependent decrease
Atherogenic lipids
  Effect on atherogenic lipids: significantly reduce atherogenic lipids

From patent US20260000632A1, “STRUCTURALLY MODIFIED FATTY ACIDS FOR IMPROVING GLYCEMIC CONTROL AND TREATING INFLAMMATORY BOWEL DISEASE” (Northsea Therapeutics B.V., priority 2018, published 2026)
